Results taken from ChEMBL document CHEMBL5291721, “A preclinical secondary pharmacology resource illuminates target-adverse drug reaction associations of marketed drugs” (Nat Commun, 2023).

What was measured:
[1] = biological target: T1, Gamma-aminobutyric acid receptor subunit alpha-1 (Rattus norvegicus, UniProt P62813)
Histamine H2 receptor = Histamine H2 receptor (Homo sapiens, UniProt P25021); format: functional, cell-based
[2] = biological target: T2, 5-hydroxytryptamine receptor 2C (Homo sapiens, UniProt P28335)
T2 sequence (P28335 whole entry): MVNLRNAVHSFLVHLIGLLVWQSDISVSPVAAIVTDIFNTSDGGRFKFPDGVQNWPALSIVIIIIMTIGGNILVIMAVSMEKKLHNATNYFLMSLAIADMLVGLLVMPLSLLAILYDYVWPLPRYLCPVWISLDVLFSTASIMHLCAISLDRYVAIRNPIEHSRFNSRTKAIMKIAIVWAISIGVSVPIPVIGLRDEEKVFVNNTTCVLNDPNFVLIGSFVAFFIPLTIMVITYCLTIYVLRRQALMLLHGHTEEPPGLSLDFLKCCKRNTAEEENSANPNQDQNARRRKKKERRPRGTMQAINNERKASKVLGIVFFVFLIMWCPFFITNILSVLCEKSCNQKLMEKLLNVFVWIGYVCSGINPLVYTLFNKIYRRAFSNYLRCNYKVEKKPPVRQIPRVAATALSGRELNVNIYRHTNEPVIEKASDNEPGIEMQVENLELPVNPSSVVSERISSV

Mu-type opioid receptor = Mu-type opioid receptor (Homo sapiens, UniProt P35372)
Sequence of Mu-type opioid receptor (P35372 whole entry): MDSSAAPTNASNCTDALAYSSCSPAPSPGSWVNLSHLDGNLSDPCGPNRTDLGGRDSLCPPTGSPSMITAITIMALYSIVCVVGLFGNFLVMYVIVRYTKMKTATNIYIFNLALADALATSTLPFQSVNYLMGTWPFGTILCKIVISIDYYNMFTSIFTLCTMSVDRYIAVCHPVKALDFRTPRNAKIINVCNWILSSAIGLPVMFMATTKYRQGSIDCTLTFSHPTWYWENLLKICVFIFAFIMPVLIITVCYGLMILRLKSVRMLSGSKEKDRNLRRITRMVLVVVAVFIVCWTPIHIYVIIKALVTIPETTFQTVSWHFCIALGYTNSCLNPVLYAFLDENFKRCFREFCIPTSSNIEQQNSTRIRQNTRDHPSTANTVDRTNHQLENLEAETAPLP

[3] = biological target: Beta-1 adrenergic receptor (Homo sapiens, UniProt P08588); format: functional
Sequence of Beta-1 adrenergic receptor (P08588 whole entry): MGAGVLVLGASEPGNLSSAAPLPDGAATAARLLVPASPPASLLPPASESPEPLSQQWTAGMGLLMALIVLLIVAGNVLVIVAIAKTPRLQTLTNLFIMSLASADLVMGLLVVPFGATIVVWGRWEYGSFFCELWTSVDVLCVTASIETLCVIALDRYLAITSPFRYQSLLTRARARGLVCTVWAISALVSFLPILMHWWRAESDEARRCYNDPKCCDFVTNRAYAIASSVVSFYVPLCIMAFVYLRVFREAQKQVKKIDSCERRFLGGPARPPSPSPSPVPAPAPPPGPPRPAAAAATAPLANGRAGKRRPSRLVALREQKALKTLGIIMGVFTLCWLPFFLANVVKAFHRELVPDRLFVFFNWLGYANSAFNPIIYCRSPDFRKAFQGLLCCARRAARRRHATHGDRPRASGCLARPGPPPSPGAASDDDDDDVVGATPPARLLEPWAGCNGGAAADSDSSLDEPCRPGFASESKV

[4] = biological target: T3, Alpha-2B adrenergic receptor (Homo sapiens, UniProt P18089)
T3 sequence (P18089 whole entry): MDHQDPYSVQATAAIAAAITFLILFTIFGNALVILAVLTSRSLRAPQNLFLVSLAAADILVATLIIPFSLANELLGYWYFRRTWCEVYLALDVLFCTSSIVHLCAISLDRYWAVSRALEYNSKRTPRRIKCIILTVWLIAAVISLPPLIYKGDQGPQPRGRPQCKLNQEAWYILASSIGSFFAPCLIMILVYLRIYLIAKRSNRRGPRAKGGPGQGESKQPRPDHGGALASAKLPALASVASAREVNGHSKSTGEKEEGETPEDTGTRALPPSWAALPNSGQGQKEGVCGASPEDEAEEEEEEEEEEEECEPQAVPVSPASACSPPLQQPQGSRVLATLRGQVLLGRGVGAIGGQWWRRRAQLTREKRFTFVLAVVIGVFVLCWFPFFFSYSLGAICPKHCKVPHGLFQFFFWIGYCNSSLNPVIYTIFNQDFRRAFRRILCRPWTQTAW

[5] = biological target: T1, Gamma-aminobutyric acid receptor subunit alpha-1; remark: listed apart in the source
Progesterone receptor = biological target: T4, Progesterone receptor (Homo sapiens, UniProt P06401); format: functional
T4 sequence (P06401 whole entry): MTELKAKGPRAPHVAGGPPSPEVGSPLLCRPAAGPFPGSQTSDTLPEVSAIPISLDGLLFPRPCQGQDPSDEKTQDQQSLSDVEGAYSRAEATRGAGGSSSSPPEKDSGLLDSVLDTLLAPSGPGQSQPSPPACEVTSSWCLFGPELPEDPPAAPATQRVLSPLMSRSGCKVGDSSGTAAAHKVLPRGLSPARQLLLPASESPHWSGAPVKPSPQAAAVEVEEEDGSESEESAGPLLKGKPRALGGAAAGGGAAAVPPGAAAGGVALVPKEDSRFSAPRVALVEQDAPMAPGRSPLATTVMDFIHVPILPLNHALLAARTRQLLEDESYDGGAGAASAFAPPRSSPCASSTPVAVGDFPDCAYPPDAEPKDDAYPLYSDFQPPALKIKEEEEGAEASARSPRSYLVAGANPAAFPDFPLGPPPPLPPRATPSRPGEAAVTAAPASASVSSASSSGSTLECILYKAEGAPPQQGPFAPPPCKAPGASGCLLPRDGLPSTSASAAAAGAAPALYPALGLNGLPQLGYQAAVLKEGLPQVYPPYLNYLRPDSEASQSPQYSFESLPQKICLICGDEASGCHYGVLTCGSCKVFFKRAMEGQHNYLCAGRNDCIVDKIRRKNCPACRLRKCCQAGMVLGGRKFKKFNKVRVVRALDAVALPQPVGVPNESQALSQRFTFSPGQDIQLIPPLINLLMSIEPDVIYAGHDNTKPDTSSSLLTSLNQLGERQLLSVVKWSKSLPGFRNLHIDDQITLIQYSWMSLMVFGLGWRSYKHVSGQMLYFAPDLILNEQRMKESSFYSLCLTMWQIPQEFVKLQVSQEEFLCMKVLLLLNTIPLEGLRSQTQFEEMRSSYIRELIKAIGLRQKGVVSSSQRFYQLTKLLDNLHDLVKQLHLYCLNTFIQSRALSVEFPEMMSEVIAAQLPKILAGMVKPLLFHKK

[6] = biological target: Sodium-dependent dopamine transporter (Homo sapiens, UniProt Q01959)
Sequence of Sodium-dependent dopamine transporter (Q01959 whole entry): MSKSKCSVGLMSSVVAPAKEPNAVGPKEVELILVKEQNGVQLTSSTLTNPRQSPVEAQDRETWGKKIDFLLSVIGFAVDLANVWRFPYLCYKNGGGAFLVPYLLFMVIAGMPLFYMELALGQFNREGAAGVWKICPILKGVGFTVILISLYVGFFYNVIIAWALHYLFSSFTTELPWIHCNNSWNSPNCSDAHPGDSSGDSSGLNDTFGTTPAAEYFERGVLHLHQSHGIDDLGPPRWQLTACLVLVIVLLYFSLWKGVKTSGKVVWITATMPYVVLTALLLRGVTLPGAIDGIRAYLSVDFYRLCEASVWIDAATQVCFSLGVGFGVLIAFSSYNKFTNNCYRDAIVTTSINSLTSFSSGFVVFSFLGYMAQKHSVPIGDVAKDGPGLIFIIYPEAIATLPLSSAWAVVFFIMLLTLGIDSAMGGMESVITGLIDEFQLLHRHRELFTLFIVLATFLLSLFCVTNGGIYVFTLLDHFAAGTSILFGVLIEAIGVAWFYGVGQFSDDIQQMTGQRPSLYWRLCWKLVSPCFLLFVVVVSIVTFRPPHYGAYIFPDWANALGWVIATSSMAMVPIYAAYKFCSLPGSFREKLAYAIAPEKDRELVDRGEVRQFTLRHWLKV

Thromboxane A2 receptor = biological target: T5, Thromboxane A2 receptor (Homo sapiens, UniProt P21731)
T5 sequence (P21731 whole entry): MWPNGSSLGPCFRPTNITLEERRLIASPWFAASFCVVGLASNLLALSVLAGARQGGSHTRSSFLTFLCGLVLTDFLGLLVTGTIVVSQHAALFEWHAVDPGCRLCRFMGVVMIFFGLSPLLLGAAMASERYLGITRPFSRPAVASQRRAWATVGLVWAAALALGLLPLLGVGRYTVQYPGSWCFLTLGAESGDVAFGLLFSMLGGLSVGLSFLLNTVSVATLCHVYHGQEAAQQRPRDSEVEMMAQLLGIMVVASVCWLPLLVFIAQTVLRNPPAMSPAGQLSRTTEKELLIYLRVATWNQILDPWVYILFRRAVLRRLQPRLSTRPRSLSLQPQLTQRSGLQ

[7] = biological target: Beta-2 adrenergic receptor (Homo sapiens, UniProt P07550)
Sequence of Beta-2 adrenergic receptor (P07550 whole entry): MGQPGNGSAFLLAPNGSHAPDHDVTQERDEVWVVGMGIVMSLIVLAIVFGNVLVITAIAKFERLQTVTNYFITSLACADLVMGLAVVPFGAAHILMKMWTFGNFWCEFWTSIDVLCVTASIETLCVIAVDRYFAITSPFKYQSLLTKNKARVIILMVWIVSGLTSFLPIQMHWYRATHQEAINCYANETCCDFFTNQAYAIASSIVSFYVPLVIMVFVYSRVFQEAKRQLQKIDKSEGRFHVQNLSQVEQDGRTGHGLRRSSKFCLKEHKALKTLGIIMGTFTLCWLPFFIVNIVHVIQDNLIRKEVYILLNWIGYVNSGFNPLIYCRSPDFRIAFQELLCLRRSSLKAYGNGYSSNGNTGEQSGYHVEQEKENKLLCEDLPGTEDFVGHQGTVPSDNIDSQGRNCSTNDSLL

[8] = biological target: Growth hormone secretagogue receptor type 1 (Homo sapiens, UniProt Q92847)
Sequence of Growth hormone secretagogue receptor type 1 (Q92847 whole entry): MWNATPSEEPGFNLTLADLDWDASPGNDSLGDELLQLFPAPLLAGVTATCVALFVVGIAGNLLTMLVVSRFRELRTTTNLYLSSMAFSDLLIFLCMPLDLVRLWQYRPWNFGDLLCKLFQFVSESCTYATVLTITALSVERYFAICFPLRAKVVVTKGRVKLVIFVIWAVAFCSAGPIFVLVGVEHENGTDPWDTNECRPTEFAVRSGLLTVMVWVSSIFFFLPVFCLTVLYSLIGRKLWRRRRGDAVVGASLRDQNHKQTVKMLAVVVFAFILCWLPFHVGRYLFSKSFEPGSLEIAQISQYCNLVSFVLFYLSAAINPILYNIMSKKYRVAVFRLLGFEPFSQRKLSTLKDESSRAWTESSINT
Also: assay procedure not described here.

Sequence of Histamine H2 receptor (P25021 whole entry): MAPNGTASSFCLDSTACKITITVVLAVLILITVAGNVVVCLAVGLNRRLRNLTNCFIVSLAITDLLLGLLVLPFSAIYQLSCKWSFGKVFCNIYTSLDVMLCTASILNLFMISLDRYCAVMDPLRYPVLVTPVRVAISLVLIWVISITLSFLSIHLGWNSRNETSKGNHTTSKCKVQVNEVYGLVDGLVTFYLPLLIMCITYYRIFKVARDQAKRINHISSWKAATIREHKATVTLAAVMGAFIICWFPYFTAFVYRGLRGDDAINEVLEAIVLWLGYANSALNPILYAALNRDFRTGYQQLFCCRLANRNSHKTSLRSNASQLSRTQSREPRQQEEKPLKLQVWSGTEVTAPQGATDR
T1 sequence (P62813 whole entry): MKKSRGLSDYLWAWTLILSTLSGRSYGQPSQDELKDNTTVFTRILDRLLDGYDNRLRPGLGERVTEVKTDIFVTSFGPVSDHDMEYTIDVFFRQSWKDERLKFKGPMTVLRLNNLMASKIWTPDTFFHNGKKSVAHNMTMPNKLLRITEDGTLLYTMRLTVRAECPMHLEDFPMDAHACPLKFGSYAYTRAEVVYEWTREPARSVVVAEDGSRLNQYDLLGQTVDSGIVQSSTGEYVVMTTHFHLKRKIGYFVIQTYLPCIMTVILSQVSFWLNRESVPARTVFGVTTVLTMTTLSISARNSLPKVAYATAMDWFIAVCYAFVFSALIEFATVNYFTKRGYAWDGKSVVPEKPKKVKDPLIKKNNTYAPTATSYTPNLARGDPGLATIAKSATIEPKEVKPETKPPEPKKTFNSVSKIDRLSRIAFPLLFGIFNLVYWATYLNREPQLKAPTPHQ

Structure (SMILES)	AC50 [1] [µM]	AC50 (Histamine H2 receptor) [µM]	AC50 [2] [µM]	AC50 (Mu-type opioid receptor) [µM]	AC50 [3] [µM]	AC50 [4] [µM]	AC50 [5] [µM]	AC50 (Progesterone receptor) [µM]	AC50 [6] [µM]	AC50 (Thromboxane A2 receptor) [µM]	AC50 [7] [µM]	AC50 [8] [µM]
Cc1oc(=O)oc1COC(=O)[C@@H]1N2C(=O)[C@@H](NC(=O)[C@H](N)c3ccccc3)[C@H]2SC1(C)C [LENAMPICILLIN]	> 30	–	–	–	–	–	–	–	–	–	–	–
COc1cc(C)c2c(Oc3cccc(C(F)(F)F)c3)c(OC)cc(NC(C)CCCN)c2n1 (stereo not given) [TAFENOQUINE]	> 30	–	–	–	–	–	–	–	–	–	–	–
Cc1ccccc1-n1c(CF)nc2ccc(N)cc2c1=O [AFLOQUALONE]	–	> 30	> 30	> 30	> 30	> 10	> 10	> 30	> 30	> 30	> 30	> 30
O=C(CCC/C=C\C[C@@H]1[C@@H](CC[C@@H](O)CCc2ccccc2)[C@H](O)C[C@@H]1O)OCCCCO[N+](=O)[O-] [LATANOPROSTENE BUNOD]	> 30	–	–	–	–	–	–	–	–	–	–	–
COc1ccc([C@@H]2CC(=O)c3c(O)cc(O)cc3O2)cc1O [HESPERETIN]	–	> 30	> 30	> 30	> 10	> 10	> 10	> 10	> 10	> 10	> 10	> 10
CC(=O)OC[C@H]1O[C@@H](n2ncc(=O)[nH]c2=O)[C@H](OC(C)=O)[C@@H]1OC(C)=O [AZARIBINE]	> 30	–	–	–	–	–	–	–	–	–	–	–
CN[C@@H](C)[C@@H](O)c1ccccc1 [PSEUDOEPHEDRINE]	–	> 10	> 30	> 30	> 10	> 10	> 10	–	> 10	> 30	> 10	> 30
C[C@]12C=CC(=O)C=C1CC[C@@H]1[C@@H]2CC[C@]2(C)OC(=O)CC[C@@H]12 [TESTOLACTONE]	–	> 10	> 30	> 30	> 10	> 10	> 10	> 10	> 10	> 10	> 10	> 10
CCCSc1nc(N[C@@H]2C[C@H]2c2ccc(F)c(F)c2)c2nnn([C@@H]3C[C@H](OCCO)[C@@H](O)[C@H]3O)c2n1 [TICAGRELOR]	> 30	–	–	–	–	–	–	–	–	–	–	–
C[C@H](N[C@@H](CCc1ccccc1)C(=O)O)C(=O)N1Cc2ccccc2C[C@H]1C(=O)O	> 30	–	–	–	–	–	–	–	–	–	–	–
N#Cc1ccc(Oc2ccc3c(c2)COB3O)cc1 [CRISABOROLE]	> 30	–	–	–	–	–	–	–	–	–	–	–
CC(COc1ccccc1)NC(C)C(O)c1ccc(O)cc1 (stereo not given) [ISOXSUPRINE]	> 30	–	–	–	–	–	–	–	–	–	–	–
CCOC(=O)c1ccc(N)cc1 [BENZOCAINE]	–	> 10	> 30	> 30	> 10	–	> 10	> 10	> 10	> 10	> 10	> 10
Cc1cn([C@H]2O[C@@H](CO)[C@H](O)[C@H]2F)c(=O)[nH]c1=O [CLEVUDINE]	> 30	–	–	–	–	–	–	–	–	–	–	–
COc1ccc2c(C(=S)N(C)CC(=O)O)cccc2c1C(F)(F)F [TOLRESTAT]	> 30	–	–	–	–	–	–	–	–	–	–	–
C/C=C(/C(=C/C)c1ccc(O)cc1)c1ccc(O)cc1 [DIENESTROL]	–	> 10	> 30	> 30	> 10	> 10	> 10	> 30	> 30	> 10	> 10	> 10
C[C@@H]1C[C@H]2[C@@H]3C[C@H](F)C4=CC(=O)C=C[C@]4(C)[C@H]3[C@@H](O)C[C@]2(C)[C@@]1(O)C(=O)CO [PARAMETHASONE]	> 30	–	–	–	–	–	–	–	–	–	–	–
CN(C)CCCN1c2ccccc2CCc2ccccc21 [IMIPRAMINE]	–	> 10	0.13	8.1	> 10	0.32	> 10	–	–	> 30	> 10	> 30
CCC[C@H](N[C@@H](C)C(=O)N1[C@H](C(=O)O)C[C@@H]2CCCC[C@@H]21)C(=O)OCC [PERINDOPRIL]	> 30	–	–	–	–	–	–	–	–	–	–	–
CC(=O)[C@H]1CC[C@H]2[C@@H]3C=CC4=CC(=O)CC[C@@]4(C)[C@@H]3CC[C@]12C [DYDROGESTERONE]	> 30	–	–	–	–	–	–	–	–	–	–	–
CC1(C)S[C@@H]2[C@H](/N=C/N3CCCCCC3)C(=O)N2[C@H]1C(=O)O [AMDINOCILLIN]	> 30	–	–	–	–	–	–	–	–	–	–	–
CC(C)(C)NC(=O)N[C@H](C(=O)N1C[C@H]2[C@@H]([C@H]1C(=O)NC(CC1CCC1)C(=O)C(N)=O)C2(C)C)C(C)(C)C (stereo not given in full) [BOCEPREVIR]	> 30	–	–	–	–	–	–	–	–	–	–	–
Cc1ccc(S(=O)(=O)NC(=O)NC2CCCCC2)cc1 [GLYCYCLAMIDE]	> 30	–	–	–	–	–	–	–	–	–	–	–
C[N+]1(C)CCC(=C(c2ccccc2)c2ccccc2)CC1	–	> 10	> 30	> 30	> 10	> 10	> 10	> 10	> 10	> 30	> 10	> 30
COC(=O)C[C@](O)(CCCC(C)(C)O)C(=O)O[C@@H]1C(OC)=C[C@]23CCCN2CCc2cc4c(cc2[C@H]13)OCO4 [OMACETAXINE MEPESUCCINATE]	> 30	–	–	–	–	–	–	–	–	–	–	–
CCCn1cnc2c1c(=O)n(CCCCC(C)=O)c(=O)n2C [PROPENTOFYLLINE]	> 30	–	–	–	–	–	–	–	–	–	–	–
CC(O)(P(=O)(O)O)P(=O)(O)O [ETIDRONIC ACID]	> 30	–	–	–	–	–	–	–	–	–	–	–
C=C1c2cccc(O)c2C(=O)C2=C(O)[C@]3(O)C(=O)C(C(N)=O)=C(O)[C@@H](N(C)C)[C@@H]3[C@@H](O)[C@H]12 [METHACYCLINE]	–	> 10	> 30	> 30	> 10	> 10	> 10	> 30	> 10	> 30	> 10	> 30
CN(C)Cc1nnc2n1-c1ccc(Cl)cc1C(c1ccccc1)=NC2 [ADINAZOLAM]	–	> 10	> 30	> 30	> 10	> 10	> 10	> 10	> 10	> 10	> 10	> 10
